Measurements: patent publication US20200399238A1, “THERAPEUTIC AURONES” (MIDDLE TENNESSEE STATE UNIVERSITY, priority 2016, published 2020)
Read-outs that look alike come from different tables or passages of the source.

Assays:
[1] = tested on: rat skeletal muscle cell line, L6; assay: cells; assay type: cell-based; settings: Rattus norvegicus, weighted means of two or more independent trials, read-out: IC50 L6
[2] = tested on: Trypanosoma cruzi Tulahuen cells expressing beta-galactosidase; assay: T. cruzi intracellular assay (beta-galactosidase, L6 host cells); settings: Trypanosoma cruzi, TULAHUEN, weighted means of two or more independent trials
[3] = tested on: C. albicans (ATCC strain 90028); assay: Antifungal microdilution broth assay (PrestoBlue), C. albicans; assay type: cell-based, Candida albicans; settings: Candida albicans, ATCC90028, Table 4A; 100 μM; read-out: C. albicans inhibition (at 100 μM)
Experimental: Sigma-Aldrich) was used as the base medium for testing. […] solution of morpholinepropanesulfonic acid (MOPS; Sigma-Aldrich) was added to the RPMI to a final concentration of 0.165 M for buffering (RPMI-MOPS). This medium was adjusted to a pH of 7.0 with 10 M NaOH and filter sterilized. C. albicans (ATCC strain 90028), C. [NT] strain 66032), and C. tropicalis (ATCC strain 750) were cultured on potato dextrose agar (Sigma-Aldrich) plates, and incubated at 35° C. for 24 hours. For antifungal testing, overnight colonies were adjusted to 1.5×10^3 cells/mL, hereafter referred to as the test inoculum. PrestoBlue® (Life Technologies, Invitrogen, Carlsbad, Calif.), a resazurin-based cell viability reagent that, in metabolically active cells, is reduced from blue, non-fluorescent resazurin, to red, fluorescent resorufin, was used to assess inhibition of yeast growth by the aurones. […] Following addition of aurone, plates were then incubated for 24 hours at 35° C. PrestoBlue was added to a final concentration of 10% in each well and fluorescence read at 560 nm excitation and 590 nm emission, per manufacturer instructions, using a SpectraMax M2e spectrophotometer (Molecular Devices, LLC, Sunnyvale, Calif.). To optimize the PrestoBlue reduction time, RFUs were collected at 15 minute intervals for 4 hours using a reference antifungal. […] IC50 determination was calculated using GraphPad Prism version 7.01 for Windows (GraphPad Software, Inc., La Jolla, Calif.) from the RFUs at dilution points. Calculations were made with a nonlinear regression after transforming the molar concentrations of the aurones into the logarithmic form. Graphing was accomplished utilizing the same program following a four parameter curve fitting sigmoidal plot of the data. All aurones and controls were tested in triplicate and all testing was repeated in at least three independent experiments.

[4] = read-out: IC50 TC-I, Table 3C, intracellular T. cruzi

O=C1/C(=C/c2ccc(Br)cc2)Oc2ccccc21 [Sample 2009]
IC50 ([1]; Table 3A): > 100 µM | IC50 ([2]; read-out: IC50 TC-I, Table 3A): 11.4 µM | inhibition at 100 µM [3]: 12.3%

O=C1/C(=C/c2ccc(C(F)(F)F)cc2)Oc2ccccc21 [Sample 9084]
IC50 ([1]; Table 3A): > 400 µM | IC50 ([2]; read-out: IC50 TC-I, Table 3A): 9.38 µM | inhibition at 100 µM [3]: 17.6%

COc1cc(Br)c(/C=C2\Oc3ccccc3C2=O)cc1OC [Sample 9056]
IC50 ([1]; Table 3A): > 100 µM | IC50 ([2]; read-out: IC50 TC-I, Table 3A): 36 µM | inhibition at 100 µM [3]: 12.5%

O=C1/C(=C/c2cccc(C(F)(F)F)c2)Oc2ccccc21 [Sample 9085]
IC50 ([1]; Table 3A): 73.4 µM | IC50 ([2]; read-out: IC50 TC-I, Table 3A): 11.1 µM | inhibition at 100 µM [3]: 20.2%

COc1cccc(/C=C2\Oc3ccccc3C2=O)c1O [Sample 9055]
IC50 ([1]; Table 3A): > 100 µM | IC50 ([2]; read-out: IC50 TC-I, Table 3A): > 50 µM | inhibition at 100 µM [3]: 16.7%

COc1ccc(/C=C2\Oc3ccccc3C2=O)c(OC)c1OC [Sample 2001]
IC50 ([1]; Table 3A): > 100 µM | IC50 ([2]; read-out: IC50 TC-I, Table 3A): > 50 µM | inhibition at 100 µM [3]: 21.9%

O=C1/C(=C/C=C/c2ccccc2)Oc2ccccc21 [Sample 2013]
IC50 ([1]; Table 3C): 58 µM | IC50 [2, 4]: 14.1 µM | inhibition at 100 µM [3]: 64.6%

O=C1/C(=C/c2ccc([N+](=O)[O-])cc2)Oc2ccccc21 [Sample 2010]
IC50 ([1]; Table 3A): 249 µM | IC50 ([2]; read-out: IC50 TC-I, Table 3A): 20 µM | inhibition at 100 µM [3]: 3.3%

Cc1ccccc1/C=C1\Oc2ccccc2C1=O [Sample 9057]
IC50 ([1]; Table 3A): 99.6 µM | IC50 ([2]; read-out: IC50 TC-I, Table 3A): 26.3 µM | inhibition at 100 µM [3]: 33.6%

O=C1/C(=C/c2ccc(O)cc2)Oc2ccccc21 [Sample 9068]
IC50 ([1]; Table 3A): > 100 µM | IC50 ([2]; read-out: IC50 TC-I, Table 3A): > 50 µM | inhibition at 100 µM [3]: 11.1%

N#Cc1ccc(/C=C2\Oc3ccccc3C2=O)cc1 [Sample 2014]
IC50 ([1]; Table 3A): 239 µM | IC50 ([2]; read-out: IC50 TC-I, Table 3A): 23.5 µM | inhibition at 100 µM [3]: 50.5%

N#Cc1cccc(/C=C2\Oc3ccccc3C2=O)c1 [Sample 9070]
IC50 ([1]; Table 3A): > 200 µM | IC50 ([2]; read-out: IC50 TC-I, Table 3A): 16.7 µM | inhibition at 100 µM [3]: 14.7%

O=C1/C(=C/c2ccc(-c3ccccc3)cc2)Oc2ccccc21 [Sample 2018]
IC50 ([1]; Table 3C): 298 µM | IC50 [2, 4]: 34.4 µM | inhibition at 100 µM [3]: 59.8%

CCc1ccc(/C=C2\Oc3ccccc3C2=O)cc1 [Sample 8001]
IC50 ([1]; Table 3A): > 100 µM | IC50 ([2]; read-out: IC50 TC-I, Table 3A): 11.4 µM | inhibition at 100 µM [3]: 22.8%

O=C1/C(=C/c2ccccc2C(F)(F)F)Oc2ccccc21 [Sample 9086]
IC50 ([1]; Table 3A): 130 µM | IC50 ([2]; read-out: IC50 TC-I, Table 3A): 18.5 µM | inhibition at 100 µM [3]: 14.3%

COc1cc(/C=C2\Oc3ccccc3C2=O)cc(OC)c1OC [Sample 2002]
IC50 ([1]; Table 3A): > 100 µM | IC50 ([2]; read-out: IC50 TC-I, Table 3A): > 50 µM | inhibition at 100 µM [3]: 8.8%

COc1ccc(/C=C2\Oc3ccccc3C2=O)cc1O [Sample 9078]
IC50 ([1]; Table 3A): 70.7 µM | inhibition at 100 µM [3]: 45.6%

COc1cc(/C=C2\Oc3ccccc3C2=O)ccc1O [Sample 9053]
IC50 ([1]; Table 3A): > 200 µM | IC50 ([2]; read-out: IC50 TC-I, Table 3A): > 50 µM | inhibition at 100 µM [3]: 11.2%

O=C1/C(=C/c2cccc([N+](=O)[O-])c2)Oc2ccccc21 [Sample 2015]
IC50 ([1]; Table 3A): 226 µM | IC50 ([2]; read-out: IC50 TC-I, Table 3A): 22.6 µM | inhibition at 100 µM [3]: 2.2%

O=C1/C(=C/c2ccc[nH]2)Oc2cc(O)ccc21 [Sample 2906]
inhibition at 100 µM [3]: 27.5%

COc1ccc(/C=C2\Oc3ccccc3C2=O)cc1OC [Sample 2011]
IC50 ([1]; Table 3A): 51.9 µM | IC50 ([2]; read-out: IC50 TC-I, Table 3A): 21.9 µM | inhibition at 100 µM [3]: 14.2%

O=C1/C(=C/c2ccccc2O)Oc2ccccc21 [Sample 9088]
IC50 ([1]; Table 3A): > 100 µM | IC50 ([2]; read-out: IC50 TC-I, Table 3A): 18.4 µM | inhibition at 100 µM [3]: 1%

O=C1/C(=C/c2ccc(Br)cc2)Oc2c1ccc(O)c2O [Sample 1005]
inhibition at 100 µM [3]: 43.9%

CN(C)c1ccc(/C=C2\Oc3ccccc3C2=O)cc1 [Sample 9087]
IC50 ([1]; Table 3C): 144 µM | IC50 [2, 4]: 5.38 µM | inhibition at 100 µM [3]: 31.2%

Cc1cccc(/C=C2\Oc3ccccc3C2=O)c1 [Sample 9064]
IC50 ([1]; Table 3A): 79.9 µM | IC50 ([2]; read-out: IC50 TC-I, Table 3A): 37.9 µM | inhibition at 100 µM [3]: 32.1%

CC(C)c1ccc(/C=C2\Oc3ccccc3C2=O)cc1 [Sample 8002]
IC50 ([1]; Table 3A): 89 µM | IC50 ([2]; read-out: IC50 TC-I, Table 3A): 16.6 µM | inhibition at 100 µM [3]: 26.6%
